The record followed here is patent publication US20140081025A1, “HETEROAROMATIC RING DERIVATIVE” (TAISHO PHARMACEUTICAL CO., LTD., priority 2011, published 2014).

Test [1] has as its target T1, human orexin 2 receptor (hOX2R) (Homo sapiens, UniProt O43614).
T1 construct: expressed in transfected cells; host or cells: Chinese hamster ovary (CHO) cells
T1 sequence (O43614 1-444): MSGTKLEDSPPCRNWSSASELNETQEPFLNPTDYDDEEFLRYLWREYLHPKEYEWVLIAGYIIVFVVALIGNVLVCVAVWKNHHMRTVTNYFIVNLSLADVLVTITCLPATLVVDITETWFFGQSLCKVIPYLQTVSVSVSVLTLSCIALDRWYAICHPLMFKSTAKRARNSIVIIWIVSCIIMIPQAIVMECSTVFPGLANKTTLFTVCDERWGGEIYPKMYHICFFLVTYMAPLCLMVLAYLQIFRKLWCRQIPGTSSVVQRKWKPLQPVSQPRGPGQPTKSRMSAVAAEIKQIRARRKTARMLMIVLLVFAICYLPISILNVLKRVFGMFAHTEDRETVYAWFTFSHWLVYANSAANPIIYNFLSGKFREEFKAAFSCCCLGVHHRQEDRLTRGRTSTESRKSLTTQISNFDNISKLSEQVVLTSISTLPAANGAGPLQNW
The experiment in a line: Measurement of orexin antagonist activity (intracellular Ca2+ fluorescence, FDSS) in CHO cells expressing hOX2R. Conditions: CHO cells forcibly expressing hOX2R; ligand (two-amino-acid-substituted human orexin-A) 3 nM; Fluo 4-AM; read-out: IC50 value OX2. In kind it is cell-based. As for the experimental part: (§1) The antagonist activity of a test compound against the human orexin 1 receptor (hOX1R) or orexin 2 receptor (hOX2R) was measured by the method described in the document (Toshikatsu Okumura et al., Biochemical and Biophysical Research Communications, 280, 976-981, 2001) with appropriate modification. Chinese hamster ovary (CHO) cells forcibly expressing hOX1R or hOX2R were seeded into each well of a 96-well Black clear bottom plate (Nunc A/S) in the amount of 20000 cells per well and were cultured in a Ham's F-12 medium (Invitrogen, Inc.) containing 0.1 mM MEM non-essential amino acids (Invitrogen, Inc.), 0.5 mg/mL G418 (Invitrogen, Inc.), and 10% fetal calf serum (Invitrogen, Inc.) at 37° C. in 5% CO2 for 16 hours. The medium was removed, and then added to each well was 100 μL of an assay buffer (pH 7.4) containing 0.5 μM Fluo 4-AM ester (Dojindo Laboratories), wherein the buffer was composed of 25 mM HEPES (Dojindo Laboratories), a Hanks' balanced salt solution (Invitrogen, Inc.), 0.1% bovine serum albumin (Sigma-Aldrich Co., LLC.), 2.5 mM probenecid (Sigma-Aldrich Co., LLC.), and 200 μg/mL Amaranth (Sigma-Aldrich Co., LLC.), followed by incubation at 37° C. in 5% CO2 for 60 min. The assay buffer containing Fluo 4-AM ester was removed, and then 150 μL of an assay buffer solution containing 10 mM of the test compound dissolved in dimethyl sulfoxide was added to each well, followed by incubation for 30 min.
(§2) A peptide (Pyr-[…]NH2: Peptide Institute, Inc.), which is a ligand having substitution of two amino acids in human orexin-A, was diluted with an assay buffer to a final concentration of 300 pM for hOX1R and to a final concentration of 3 nM for hOX2R. The reaction was started by adding 50 μL of this ligand solution to each well. The reaction was monitored by measuring the fluorescence of each well at each 1 second for 3 min with a Functional Drug Screening System (FDSS manufactured by Hamamatsu Photonics K.K.), and the antagonist activity was determined based on the maximum fluorescence value as an index of the intracellular Ca^2+ concentration. The antagonist activity of a test compound was calculated by assuming that the fluorescence value of the well containing only a dilution buffer was 100% and that the fluorescence value of the well containing a buffer not containing the ligand or any test compound was 0%. The 50% inhibitory concentration (IC50 value) of a test compound was determined from fluorescence values at various concentrations of the test compound.

In test [2] the target is T2, human orexin 1 receptor (hOX1R) (Homo sapiens, UniProt O43613).
T2 construct: expressed in transfected cells; host or cells: Chinese hamster ovary (CHO) cells
T2 sequence (O43613 1-425): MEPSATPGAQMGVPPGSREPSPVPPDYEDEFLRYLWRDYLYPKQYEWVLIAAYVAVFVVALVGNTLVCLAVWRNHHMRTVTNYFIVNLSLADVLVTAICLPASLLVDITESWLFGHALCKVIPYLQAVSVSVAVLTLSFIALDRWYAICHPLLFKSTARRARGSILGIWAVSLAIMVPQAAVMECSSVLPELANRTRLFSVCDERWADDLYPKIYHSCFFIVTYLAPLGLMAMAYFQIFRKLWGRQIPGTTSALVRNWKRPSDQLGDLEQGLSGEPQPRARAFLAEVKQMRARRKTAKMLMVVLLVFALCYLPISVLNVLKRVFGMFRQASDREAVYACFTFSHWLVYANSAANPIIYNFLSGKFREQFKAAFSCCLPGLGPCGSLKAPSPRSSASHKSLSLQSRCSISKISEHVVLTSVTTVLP
The experiment in a line: Measurement of orexin antagonist activity (intracellular Ca2+ fluorescence, FDSS) in CHO cells expressing hOX1R. In kind it is cell-based. Conditions: CHO cells forcibly expressing hOX1R; ligand (two-amino-acid-substituted human orexin-A) 300 pM; Fluo 4-AM; read-out: IC50 value OX1. On the procedure: as §1, §2

Turning to `Cc1ccc(-n2nccn2)c(C(=O)N(C)CCc2cnn(-c3ccc(F)cn3)c2)c1` [Example 2, N-{2-[1-(5-Fluoropyridin-2-yl)-1H-pyrazol-4-yl]ethyl}-N,5-dimethyl-2-(2H-1,2,3-triazol-2-yl)benzamide], the figures for the IC50 in test [1] and in test [2] were 8.5 nM and 0.7 nM, respectively.

For the molecule `CN(CCc1ccn(-c2ccc(F)cn2)n1)C(=O)c1ccccc1-n1nccn1` [Example 14, N-{2-[1-(5-Fluoropyridin-2-yl)-1H-pyrazol-3-yl]ethyl}-N-methyl-2-(2H-1,2,3-triazol-2-yl)benzamide], the results for the half-inhibitory concentration (IC50) in test [1] and in test [2] were 132 nM and 10 nM, respectively.

For `CCN(CCc1ccn(-c2ccc(F)c(F)c2)n1)C(=O)c1ccccc1-n1nccn1` [Example 25, N-{2-[1-(3,4-difluorophenyl)-1H-pyrazol-3-yl]ethyl}-N-ethyl-2-(2H-1,2,3-triazol-2-yl) benzamide], the 50% inhibitory concentration (IC50) in test [1] was 3.3 nM; in test [2], 1.6 nM.

As for `Cc1ccc(-n2nccn2)c(C(=O)N(C)CCc2noc(-c3ccc(F)cn3)n2)c1` [Example 34, N-{2-[5-(5-fluoropyridin-2-yl)-1,2,4-oxadiazol-3-yl]ethyl}-N,5-dimethyl-2-(2H-1,2,3-triazol-2-yl)benzamide], the values for the IC50 in test [1] and in test [2] were 119 nM and 83.4 nM, respectively.

For the molecule `CCN(CCc1ccn(-c2ccc(F)cn2)n1)C(=O)c1ccc(F)cc1-n1nccn1` [Example 17, N-Ethyl-4-fluoro-N-{2-[1-(5-fluoropyridin-2-yl)-1H-pyrazol-3-yl]ethyl}-2-(2H-1,2,3-triazol-2-yl)benzamide], the figures for the IC50 in test [1] and in test [2] were 2.8 nM and 0.4 nM, respectively.

Regarding `CCN(CCc1cc(-c2ccc(F)cn2)on1)C(=O)c1cc(C)ccc1-n1nccn1` [Example 10, N-Ethyl-N-{2-[5-(5-fluoropyridin-2-yl)-1,2-oxazol-3-yl]ethyl}-5-methyl-2-(2H-1,2,3-triazol-2-yl)benzamide], the IC50 in test [1] was determined as 21.3 nM; in test [2], 1.8 nM.

Take `CCN(CCc1ccn(-c2cc(C(F)(F)F)ccn2)n1)C(=O)c1ccccc1-n1nccn1` [Example 26, N-ethyl-2-(2H-1,2,3-triazol-2-yl)-N-{2-{1-[4-(trifluoromethyl)pyridin-2-yl]-1H-pyrazol-3-yl}ethyl}benzamide]: the concentration for half-maximal inhibition (IC50) in test [1] is 380 nM; in test [2], 61.1 nM.

In the case of `CCN(CCc1noc(-c2ccc(F)c(F)c2)n1)C(=O)c1ccccc1-n1nccn1` [Example 42, N-ethyl-N-{2-[5-(3,4-difluorophenyl)-1,2,4-oxadiazol-3-yl]ethyl}-2-(2H-1,2,3-triazol-2-yl) benzamide], the IC50 came out at 10.8 nM in test [1] and 9.7 nM in test [2].

As to `CCN(CCc1noc(-c2ccc(F)cc2)n1)C(=O)c1cc(C)ccc1-n1nccn1` [Example 38, N-Ethyl-N-{2-[5-(4-fluorophenyl)-1,2,4-oxadiazol-3-yl]ethyl}-5-methyl-2-(2H-1,2,3-triazol-2-yl)benzamide], the IC50 came to 6.1 nM in test [1] and 1.2 nM in test [2].

`CN(CCc1noc(-c2ccc(F)cn2)n1)C(=O)c1ccccc1-n1nccn1` [Example 33, N-{2-[5-(5-fluoropyridin-2-yl)-1,2,4-oxadiazol-3-yl]ethyl}-N-methyl-2-(2H-1,2,3-triazol-2-yl) benzamide]: the values for the 50% inhibitory concentration (IC50) in test [1] and in test [2] were 2530 nM and 1190 nM, respectively.

`CCN(CCc1ccn(-c2ccc(F)cc2)n1)C(=O)c1ccccc1-n1nccn1` [Example 22, N-Ethyl-N-{2-[1-(4-fluorophenyl)-1H-pyrazol-3-yl]ethyl}-2-(2H-1,2,3-triazol-2-yl)benzamide]: the results for the IC50 in test [1] and in test [2] were 10.6 nM and 2.2 nM, respectively.

Regarding `Cc1ccc(-n2nccn2)c(C(=O)N(C)CCc2noc(-c3ccc(F)cc3)n2)c1` [Example 35, N-{2-[5-(4-fluorophenyl)-1,2,4-oxadiazol-3-yl]ethyl}-N,5-dimethyl-2-(2H-1,2,3-triazol-2-yl) benzamide], the values for the IC50 in test [1] and in test [2] were 13.9 nM and 2.4 nM, respectively.

In the case of `CCN(CCc1noc(-c2ccc(F)cn2)n1)C(=O)c1cc(C)ccc1-c1ncccn1` [Example 45, N-ethyl-N-{2-[5-(5-fluoropyridin-2-yl)-1,2,4-oxadiazol-3-yl]ethyl}-5-methyl-2-(pyrimidin-2-yl)benzamide], the values for the half-inhibitory concentration (IC50) in test [1] and in test [2] were 159 nM and 163 nM, respectively.

Consider `CCN(CCc1noc(-c2ccc(F)cn2)n1)C(=O)c1cc(F)ccc1-c1ncccn1` [Example 46, N-ethyl-5-fluoro-N-{2-[5-(5-fluoropyridin-2-yl)-1,2,4-oxadiazol-3-yl]ethyl}-2-(pyrimidin-2-yl) benzamide], for which the IC50 in test [1] was 1230 nM; in test [2], 974 nM.

On to `CN(CCc1ccn(-c2ccc(F)cn2)n1)C(=O)c1cc(F)ccc1-n1nccn1` [Example 15, 5-Fluoro-N-{2-[1-(5-fluoropyridin-2-yl)-1H-pyrazol-3-yl]ethyl}-N-methyl-2-(2H-1,2,3-triazol-2-yl)benzamide], for which the results for the concentration for half-maximal inhibition (IC50) in test [1] and in test [2] were 191 nM and 14.6 nM, respectively.

On to `CCN(CCc1ccn(-c2ccc(F)c(F)c2)n1)C(=O)c1cc(F)ccc1-c1ncccn1` [Example 29, N-{2-[1-(3,4-difluorophenyl)-1H-pyrazol-3-yl]ethyl}-N-ethyl-5-fluoro-2-(pyrimidin-2-yl) benzamide], for which the IC50 in test [1] worked out at 11.2 nM; in test [2], 1.3 nM.

For `CCN(CCc1ccn(-c2ccc(F)cn2)n1)C(=O)c1cc(C)ccc1-c1ncccn1` [Example 6, N-Ethyl-N-{2-[1-(5-fluoropyridin-2-yl)-1H-pyrazol-3-yl]ethyl}-5-methyl-2-(pyrimidin-2-yl)benzamide], the values for the 50% inhibitory concentration (IC50) in test [1] and in test [2] were 13.7 nM and 7.1 nM, respectively.

In the case of `CCN(CCc1ccn(-c2ccc(F)cn2)n1)C(=O)c1ccccc1-c1ncccn1` [Example 19, N-ethyl-N-{2-[1-(5-fluoropyridin-2-yl)-1H-pyrazol-3-yl]ethyl}-2-(pyrimidin-2-yl) benzamide], the 50% inhibitory concentration (IC50) in test [1] was determined as 7.4 nM; in test [2], 0.9 nM.

`CCN(CCc1cnn(-c2ccc(F)cn2)c1)C(=O)c1cc(C)ccc1-n1nccn1` [Example 1, N-Ethyl-N-{2-[1-(5-fluoropyridin-2-yl)-1H-pyrazol-4-yl]ethyl}-5-methyl-2-(2H-1,2,3-triazol-2-yl)benzamide]: the IC50 is 5.2 nM in test [1] and 1.8 nM in test [2].

`CCN(CCc1ccn(-c2cccc(C)n2)n1)C(=O)c1ccccc1-n1nccn1` [Example 23, N-ethyl-N-{2-[1-(6-methylpyridin-2-yl)-1H-pyrazol-3-yl]ethyl}-2-(2H-1,2,3-triazol-2-yl) benzamide]: the concentration for half-maximal inhibition (IC50) is 10.3 nM in test [1] and 3 nM in test [2].

Take `CN(CCc1noc(-c2ccc(F)cc2)n1)C(=O)c1ccccc1-n1nccn1` [Example 31, N-{2-[5-(4-Fluorophenyl)1,2,4-oxadiazol-3-yl]ethyl}-N-methyl-2-(2H-1,2,3-triazol-2-yl)benzamide]: the figures for the IC50 in test [1] and in test [2] were 114 nM and 11.6 nM, respectively.

What is called IC50 is the concentration that gives 50% inhibition.
